Experiments:
[1] = tested on: dairy cows with clinical postpartum metritis; assay: Clinical study 2, high dose: casein hydrolysate vs antibiotics in post-partum bovine clinical metritis (safety and efficacy); type: in vivo, lactating Israel Holstein Friesian cows
Protocol: The cows recruited for this study were lactating Israel Holstein Friesian located in a large dairy herd in Israel (longitude 34°40′E-35°30′E; latitude 30°30′N-33°01′N).
Cows enrollment to the study with respect to the physical conditions, inclusion criteria and exclusion criteria were as detailed above for clinical study-1 with respect to the overall physical condition and with respect to the diagnosis with clinical post partum metritis. In addition, cows randomization was as detailed above.
On day “0” (first day of the study) dairy heifers or primiparous or multiparous dairy cows from the same herd and with the same lactation and ages were randomly divided, using tables prepared in advance by the investigator, to receive one or other of the treatments. Within each table, cows were assigned to treatment in pairs, a cow for each group.
Case study Arm (“arm 1”)—1350 mg of bovine casein hydrolysate (Batch Number B100) administered in a 150 ml solution 3 times.
(§1) Control Arm (“arm 2”)—25 ml of Oxytetracycline dehydrate (200 mg/ml total of 5,000 mg) (Norbrook Laboratory, UK).
(§2) Treatment was initiated at day “0” and was administered to the cows through transcervical intrauterine infusion using a sterile uterine catheter.
Safety and efficacy criteria are as detailed above for clinical study 1 (Example 2)
The administrated veterinarian examined all cows and was in charge on the ranking of the genital secretions, from 1 to 4, based on the descriptions provided in Table 2 of clinical study 1 as well as the genital system morphology according to the description in Table 3 of clinical study 1 and the overall general impression from each cow according to the description on […].

[2] = tested on: dairy cows with clinical postpartum metritis; assay: Clinical study 1, low dose: casein hydrolysate vs antibiotics in post-partum bovine clinical metritis (safety and efficacy); type: in vivo; details: for genital secretions (ranking): score 0-4 per Table 2
Protocol: The effects of bovine casein hydrolysate in comparison with antibiotic drugs, was studied in dairy cows suffering from acute puerperal metritis (Sheldon et al., ibid 2006).
The cows recruited for this study were lactating Holstein Friesian located in large dairy herd in Israel (longitude 34°40′E-35°30′E; latitude 30°30′N-33°01′N). The cows were milked 3 times a day. The herd used was free-stall barn with a size ranged from 300 to 350 milking cows.
Cows are enrolled to the study provided that their physical condition is complied with the inclusion criteria as follows: • Cows with clinical postpartum metritis, • Cows with non-twins delivery, • Cows were not administered with intrauterine or systemic reproductive hormone therapy during the last 4 weeks, • Cows with no diagnosed morbidities, which may be potentially influence the outcome of treatment in the judgment of the investigator, • The herd managers agreed not to administer any intrauterine or reproductive hormonal therapy before examination of cows for this trial.
In addition, cows were enrolled to the clinical study provided that they have none of the following characteristics (herein “exclusion criteria”): • Cows had abnormal internal genitalia (including adhesions) • Cows with diagnosis and or treatment of severe vaginitis, lameness, mastitis-ketosis and digestive disorders during the current post calving period or any other clinical disease requiring systemic treatment at enrollment, • Cows identified to be culled (not to be inseminated) after calving • Cows administrated with immunotherapy within 3 weeks prior to study entry, • Cows administrated with anti-inflammatory and/or anabolic therapies, either systemic or by feeding 2 weeks prior to study entry. • Cows which are suspected or with a diagnosis of retained fetal membranes at the time of the current calving. • Cows which are suspected or with a clinical evidence of acute puerperal metritis with a systemic effect • Cows which are indented to be removed for any reason from the farm in the current location.
Cows in a proper physical condition (as defined above in the inclusion criteria and the exclusion criteria), that were diagnosed with confirmed clinical metritis, as determined by any one of the following clinical criteria, were enrolled to this clinical study:
1) cows must be febrile (i.e., morning rectal temperature more than 39.4° C.) and/or
2) cows must have a flaccid, non-retractable uterus that is located in the abdomen, a cervical diameter >7.5 cm, and a watery, mucopurulent, or fetid vulvar discharge.
On day “0” (first day of the study), dairy heifers or primiparous or multiparous dairy cows from the same herd and within the same lactation and ages were randomly divided, using tables prepared in advance by the investigator, to receive one or other of the treatments. Within each table, cows were assigned to treatment in pairs, a cow for each group.
Case study Arm (“arm 1”)—450 mg of bovine casine hydrolysate (Batch Number B100) administered in a 150 ml solution until completion of the arm's sample size.
as §1, §2
Safety was determined by monitoring on days 0.3, 1, 2, 3, 7 and 14 post-treatment, the appearance of adverse events (as detailed below) or any sign of toxicity.
In addition, the overall general impression from each cow was assessed and ranked according to the description on Table 1.
Efficacy was assessed by measuring the rectal temperature; genital system morphology and the genital secretions at a first visit after the morning observation and milking, before the treatment, 6-8 hours after the treatment and then on days 1, 2, 3, 7 and 14 post treatment. In general, treatment success was assessed after a total of 14 days after treatment. […]

SMILES: CN(C)[C@@H]1C(O)=C(C(N)=O)C(=O)[C@@]2(O)C(O)=C3C(=O)c4c(O)cccc4[C@@](C)(O)[C@H]3[C@H](O)[C@@H]12 [Antibiotics, Oxytetracycline dehydrate]
- cow's fever (rectal temperature) ([1]; 6-8 h after treatment, casein hydrolysate 1350 mg or oxytetracycline 5,000 mg intrauterine): 39.1 °C
- cow's fever (rectal temperature) ([1]; Before treatment (day = 0), casein hydrolysate 1350 mg (150 ml solution 3 times) or oxytetracycline 5,000 mg, intrauterine, 4 and 3 cows): 38.4 °C
- cow's fever (rectal temperature) ([1]; Day 1 (22-32 h after treatment), casein hydrolysate 1350 mg or oxytetracycline 5,000 mg intrauterine): 38.6 °C
- cow's fever (rectal temperature) ([1]; Day 2, casein hydrolysate 1350 mg or oxytetracycline 5,000 mg intrauterine): 38.4 °C
- cow's fever (rectal temperature) ([1]; Day 3, casein hydrolysate 1350 mg or oxytetracycline 5,000 mg intrauterine): 38.9 °C
- cow's fever (rectal temperature) ([1]; Day 7, casein hydrolysate 1350 mg or oxytetracycline 5,000 mg intrauterine): 38.3 °C
- cow's fever (rectal temperature) ([1]; Day 14, casein hydrolysate 1350 mg or oxytetracycline 5,000 mg intrauterine): 38.7 °C
- cow's fever (rectal temperature) ([2]; 6-8 h after treatment, casein hydrolysate 450 mg or oxytetracycline 5,000 mg intrauterine): 39.4 ± 0.66 °C
- genital secretions (ranking) ([2]; 6-8 h after treatment): 3.0 ± 0.92
- cow's fever (rectal temperature) ([2]; Before treatment (day = 0), casein hydrolysate 450 mg in 150 ml or oxytetracycline 5,000 mg, intrauterine infusion, 8 cows per arm): 38.8 ± 0.26 °C
- genital secretions (ranking) ([2]; Before treatment (day = 0), casein hydrolysate 450 mg or oxytetracycline 5,000 mg intrauterine): 3.625 ± 0.517
- cow's fever (rectal temperature) ([2]; Day 1 (22-32 h after treatment), casein hydrolysate 450 mg or oxytetracycline 5,000 mg intrauterine): 39.1 ± 0.27 °C
- genital secretions (ranking) ([2]; Day 1 (22-32 h after treatment)): 2.12 ± 0.84
- cow's fever (rectal temperature) ([2]; Day 2, casein hydrolysate 450 mg or oxytetracycline 5,000 mg intrauterine): 39.1 ± 0.47 °C
- genital secretions (ranking) ([2]; Day 2): 2.0 ± 0.92
- cow's fever (rectal temperature) ([2]; Day 3, casein hydrolysate 450 mg or oxytetracycline 5,000 mg intrauterine): 38.9 ± 0.37 °C
- genital secretions (ranking) ([2]; Day 3): 2.0 ± 0.92
- cow's fever (rectal temperature) ([2]; Day 7, casein hydrolysate 450 mg or oxytetracycline 5,000 mg intrauterine): 38.9 ± 0.18 °C
- genital secretions (ranking) ([2]; Day 7): 1.5 ± 0.75
- cow's fever (rectal temperature) ([2]; Day 14, casein hydrolysate 450 mg or oxytetracycline 5,000 mg intrauterine): 38.8 ± 0.41 °C
- genital secretions (ranking) ([2]; Day 14): 1.5 ± 0.75

Reference: patent US9861678B2, “Casein peptide for use in the treatment of uterine infections” (Mileutis Ltd., priority 2010, dated 2018)
